# Measured values as given in ChEMBL document CHEMBL1148404, “Novel heteroarotinoids as potential antagonists of Mycobacterium bovis BCG” (2004).
# Tested on: Mycobacterium tuberculosis variant bovis
# Test: Antibacterial activity against Mycobacterium bovis (BCG); value ranges from 5-10
# Assay type: functional
row,Compound,MIC [µg/mL]
1,CCOC(=O)c1ccc(N/C(S)=N/c2ccc3c(c2)C(C)(C)CC(C)(C)O3)cc1,< 10

# Tested on: Mycobacterium tuberculosis variant bovis
# Test: Antibacterial activity against Mycobacterium bovis (BCG); value ranges from 20-40
# Assay type: functional
row,Compound,MIC [µg/mL]
1,CCOC(=O)c1ccc(NC(=O)Nc2ccc3c(c2)C(C)(C)CC(C)(C)S3)cc1,< 40
2,CCOC(=O)c1ccc(NC(=O)Nc2ccc3c(c2)C(C)(C)CC(C)(C)O3)cc1,< 40
3,CC1(C)CC(C)(C)c2cc(N/C(S)=N/c3ccc([N+](=O)[O-])cc3)ccc2O1,< 40
4,COc1ccc2c(c1/N=C(\S)Nc1ccc([N+](=O)[O-])cc1)C(C)(C)COC2(C)C,< 40
5,CC1=CC(C)(C)N(C)c2ccc(N/C(S)=N/c3ccc([N+](=O)[O-])cc3)cc21,< 40
6,CCOC(=O)c1ccc(N/C(S)=N/c2ccc3c(c2)C(C)=CC(C)(C)N3C)cc1,< 40
7,CCOC(=O)c1ccc(N/C(S)=N/c2ccc3c(c2)C(C)(C)CC(C)(C)S3)cc1,< 40
8,COc1ccc2c(c1NC(=S)NC(=O)c1ccc([N+](=O)[O-])cc1)C(C)(C)COC2(C)C,< 40
9,CCOC(=O)c1ccc(NC(=O)Nc2ccc3c(c2)C(C)=CC(C)(C)N3C)cc1,< 40
10,CC1(C)CC(C)(C)c2cccc(/N=C(\S)Nc3ccc([N+](=O)[O-])cc3)c2O1,< 40
11,CCOC(=O)c1ccc(NC(=O)Nc2cccc3c2OC(C)(C)CC3(C)C)cc1,< 40
12,CCOC(=O)c1ccc(N/C(S)=N/c2cccc3c2OC(C)(C)CC3(C)C)cc1,< 40

# Tested on: Mycobacterium tuberculosis variant bovis
# Test: Antibacterial activity against Mycobacterium bovis (BCG); value ranges from 10-20
# Assay type: functional
row,Compound,MIC [µg/mL]
1,CC1=CC(C)(C)N(C)c2ncc(/C=C/C(C)=C\C=N\N=C(/N)S)cc21,< 20

# Tested on: Mycobacterium tuberculosis variant bovis
# Test: Antibacterial activity against Mycobacterium bovis (BCG); value ranges from 0.5-1
# Assay type: functional
row,Compound,MIC [µg/mL]
1,CC(C)CCOc1ccc(NC(=S)Nc2ccc(OCCC(C)C)cc2)cc1 [TIOCARLIDE],< 1

# Tested on: Mycobacterium tuberculosis variant bovis
# Test: Antibacterial activity against Mycobacterium bovis (BCG); value ranges from 2-4
# Assay type: functional
row,Compound,MIC [µg/mL]
1,COC(=O)c1ccc(C(=O)Oc2ccc3c(c2)OC(C)(C)C=C3C)cc1,< 4
